Earlier results in patent US8563582B2, “3-aminocyclopentanecarboxamides as modulators of chemokine receptors” (priority 2004, dated 2013).

Key:
rhesus macaque CCR5 = rhesus macaque CCR5 (Macaca mulatta, UniProt P61813)
human CCR5 = human CCR5 (Homo sapiens, UniProt P51681)
HIV-1 [1] = conditions: U-87 astroglioma cells
HIV-1 [2] = tested on: HIV-1

Chain of human CCR5 (P51681 whole entry): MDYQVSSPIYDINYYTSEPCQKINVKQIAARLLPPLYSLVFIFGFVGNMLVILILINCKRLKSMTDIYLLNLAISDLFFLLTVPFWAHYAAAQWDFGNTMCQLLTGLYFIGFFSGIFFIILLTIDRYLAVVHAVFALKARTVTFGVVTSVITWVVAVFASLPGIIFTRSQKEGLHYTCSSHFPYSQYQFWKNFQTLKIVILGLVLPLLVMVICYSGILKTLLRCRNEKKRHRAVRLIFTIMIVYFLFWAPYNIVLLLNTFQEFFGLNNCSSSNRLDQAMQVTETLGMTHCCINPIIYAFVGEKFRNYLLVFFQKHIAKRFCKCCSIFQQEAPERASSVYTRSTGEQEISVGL

| Compound | inhibition of HIV-1 entry via rhesus macaque CCR5 (rhesus macaque CCR5) | inhibition of entry of HIV-1 via human CCR5 (human CCR5) | inhibition of HIV-1 infection mediated by CCR5 (HIV-1 [1]) | effect on infection of CXCR4-expressing cells (HIV-1 [2]) | anti-HIV activity (HIV) |
| --- | --- | --- | --- | --- | --- |
| Cc1ncnc(C)c1C(=O)N1CCC(C)(N2CCN([C@@H](C)c3ccc(C(F)(F)F)cc3)[C@@H](C)C2)CC1 [AD101] | inhibits | inhibits | – | – | – |
| CCO/N=C(\c1ccc(Br)cc1)C1CCN(C2(C)CCN(C(=O)c3c(C)cc[n+]([O-])c3C)CC2)CC1 [SCH-C] | does not | – | specifically inhibits | no effect | – |
| Cc1ccc(-c2ccc3c(c2)C=C(C(=O)Nc2ccc(C[N+](C)(C)C4CCOCC4)cc2)CCC3)cc1.[Cl-] [TAK-779] | – | – | – | – | potent but variable |
